Test results as given in the supplement of paper PMC7661543.
± gives the standard deviation of the averaged measurements.

Assays:
Assay in all cases: relative cell number vs DMSO control (72 h) (% of DMSO); higher = less growth inhibition (more cells)
Details in all cases: sgRNA knockout: sgNT
BT-20 = tested on: BT-20
Experimental: (§1)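 QMAP-Seq: a pool of 5 breast cancer cell lines (ZR-75-1, SKBR3, HCC-38, MDA-MB-231, BT-20), each carrying 12 doxycycline-inducible Cas9 sgRNA perturbations (11 knockouts plus non-targeting sgNT), was treated with compounds for 72 h at four 10-fold doses (10 nM-10 uM or 1 nM-1 uM range). Barcodes were amplified and sequenced, and cell number was interpolated from 293T spike-in standard curves. The result is expressed as % of the median of DMSO wells. Two biological replicates.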

HCC-38 = tested on: HCC-38
Experimental: as §1

SKBR3 = tested on: SKBR3
Experimental: as §1

ZR-75-1 = tested on: ZR-75-1
Experimental: as §1

MDA-MB-231 = tested on: MDA-MB-231
Experimental: as §1

Row | Structure (SMILES) | relative cell number (BT-20; 10 nM) | relative cell number (BT-20; 100 nM) | relative cell number (BT-20; 1000 nM) | relative cell number (BT-20; 10000 nM) | relative cell number (HCC-38; 10 nM) | relative cell number (HCC-38; 100 nM) | relative cell number (HCC-38; 1000 nM) | relative cell number (HCC-38; 10000 nM) | relative cell number (SKBR3; 10 nM) | relative cell number (SKBR3; 100 nM) | relative cell number (SKBR3; 1000 nM) | relative cell number (SKBR3; 10000 nM) | relative cell number (ZR-75-1; 10 nM) | relative cell number (ZR-75-1; 100 nM) | relative cell number (ZR-75-1; 1000 nM) | relative cell number (ZR-75-1; 10000 nM) | relative cell number (MDA-MB-231; 10 nM) | relative cell number (MDA-MB-231; 100 nM) | relative cell number (MDA-MB-231; 1000 nM) | relative cell number (MDA-MB-231; 10000 nM) | relative cell number (BT-20; 1 nM) | relative cell number (HCC-38; 1 nM) | relative cell number (SKBR3; 1 nM) | relative cell number (ZR-75-1; 1 nM) | relative cell number (MDA-MB-231; 1 nM)
1 | CN(C)CC[C@H](CSc1ccccc1)Nc1ccc(S(=O)(=O)NC(=O)c2ccc(N3CCN(Cc4ccccc4-c4ccc(Cl)cc4)CC3)cc2)cc1[N+](=O)[O-] [ABT737] | 93.2 ± 26 | 97.5 ± 10 | 94.8 ± 13 | 69.2 ± 5.1 | 104 ± 3.7 | 84 ± 12 | 88.2 ± 4.7 | 62.5 ± 18 | 84.5 ± 11 | 98.2 ± 4.7 | 85.7 ± 9.8 | 93.31 ± 0.55 | 74.8 ± 17 | 117 ± 40 | 124 ± 25 | 73.9 ± 11 | 96.3 ± 18 | 102 ± 21 | 90.4 ± 30 | 69.4 ± 16 | – | – | – | – | –
2 | Cn1cnc2c(F)c(Nc3ccc(Br)cc3Cl)c(C(=O)NOCCO)cc21 [Selumetinib] | 80.6 ± 8.9 | 67 ± 3.8 | 99.2 ± 31 | 80.9 ± 20 | 96.6 ± 6.1 | 85.3 ± 4.4 | 84.4 ± 8.8 | 92.3 ± 3.6 | 97.8 ± 51 | 90.1 ± 60 | 103 ± 8.6 | 73.3 ± 5.1 | 71 ± 10 | 67 ± 25 | 67.5 ± 21 | 59.2 ± 5.8 | 88.9 ± 25 | 74.2 ± 37 | 96.3 ± 23 | 57.1 ± 36 | – | – | – | – | –
3 | CC(C)(C#N)c1cc(Cn2cncn2)cc(C(C)(C)C#N)c1 [Anastrozole] | 103 ± 50 | 116 ± 12 | 114 ± 15 | – | 116 ± 3.1 | 103 ± 5.8 | 115.2 ± 0.88 | – | 90.3 ± 18 | 118 ± 17 | 103 ± 13 | – | 151 ± 25 | 100 ± 3.4 | 120 ± 17 | – | 110 ± 75 | 121 ± 17 | 115 ± 22 | – | 112 ± 1.8 | 106 ± 9.5 | 123 ± 23 | 76.6 ± 1.4 | 107 ± 8.8
4 | O=C(O)C(Cc1c[nH]c2ccccc12)N1C(=O)c2ccccc2C1=O (stereo not given) [RG108] | 82.3 ± 16 | 70.3 ± 4.6 | 102 ± 4.9 | 102 ± 14 | 87.6 ± 8 | 88.2 ± 2.6 | 83.03 ± 0.26 | 97.2 ± 1.7 | 97.1 ± 11 | 64.7 ± 21 | 81 ± 16 | 73.2 ± 5.8 | 94.8 ± 3.9 | 76.2 ± 6.3 | 98.5 ± 2.5 | 71.4 ± 41 | 96.8 ± 28 | 96.5 ± 4 | 80.5 ± 17 | 79.7 ± 30 | – | – | – | – | –
5 | CS(=O)(=O)N1CCN(Cc2cc3nc(-c4cccc5[nH]ncc45)nc(N4CCOCC4)c3s2)CC1 [GDC0941] | 106 ± 16 | 82.9 ± 45 | 59.6 ± 12 | 55.9 ± 24 | 94.3 ± 5.9 | 95 ± 5.9 | 79.2 ± 12 | 33.5 ± 0.44 | 96.1 ± 17 | 67.8 ± 33 | 38.6 ± 4.8 | 35.6 ± 8.4 | 94.4 ± 15 | 62.4 ± 20 | 52.5 ± 23 | 26.1 ± 8.7 | 126 ± 30 | 84 ± 21 | 66.3 ± 8.2 | 44.3 ± 12 | – | – | – | – | –
6 | CN1CCc2c(c3ccccc3n2Cc2ccc(C(=O)NO)cc2)C1 [TubastatinA] | 98.7 ± 12 | 97.3 ± 11 | 116.9 ± 0.46 | 81.4 ± 33 | 122 ± 20 | 88.7 ± 16 | 114 ± 8.2 | 66 ± 2.6 | 104 ± 5.4 | 59.2 ± 14 | 86.4 ± 15 | 25.7 ± 14 | 80 ± 12 | 74 ± 43 | 93.1 ± 40 | 40.4 ± 1.6 | 81.3 ± 19 | 95.1 ± 14 | 138 ± 27 | 50.6 ± 17 | – | – | – | – | –
7 | COc1ccc(-c2ccc3c(N4CCOCC4)nc(N4C[C@@H](C)O[C@@H](C)C4)nc3n2)cc1CO | 110 ± 9.1 | 119 ± 17 | 77.5 ± 5.5 | 57.6 ± 7.1 | 100 ± 8.5 | 115 ± 5.9 | 92.1 ± 13 | 48.9 ± 3.5 | 84.2 ± 39 | 110 ± 26 | 80.7 ± 2.5 | 51.5 ± 6.7 | 65.9 ± 21 | 116 ± 21 | 101 ± 4.9 | 36.1 ± 2.1 | 85.2 ± 1.6 | 166 ± 26 | 113 ± 5.1 | 57.7 ± 19 | – | – | – | – | –
8 | CC(C)(C)c1cnc(CSc2cnc(NC(=O)C3CCNCC3)s2)o1 [SNS032] | 116 ± 11 | 79.3 ± 15 | 19.7 ± 0.32 | 34.4 ± 1.1 | 100 ± 19 | 81.3 ± 2.6 | 17.3 ± 1.6 | 27.8 ± 0.81 | 72.7 ± 6 | 89.5 ± 12 | 7.96 ± 5 | 14.9 ± 1.1 | 99.8 ± 5 | 85.6 ± 9.4 | 9.44 ± 2.4 | 28.7 ± 4 | 106 ± 3.3 | 75.8 ± 13 | 10 ± 2.3 | 12 ± 1.4 | – | – | – | – | –
9 | CC[C@H](Nc1ncnc2[nH]cnc12)c1nc2cccc(F)c2c(=O)n1-c1ccccc1 [CAL101] | 96.9 ± 17 | 97.88 ± 0.52 | 88.6 ± 25 | 88.8 ± 26 | 87.5 ± 13 | 96.1 ± 14 | 86.7 ± 14 | 83.8 ± 32 | 77.4 ± 19 | 91.3 ± 18 | 87.3 ± 49 | 84.2 ± 3.7 | 76.6 ± 14 | 95.6 ± 7.7 | 84.5 ± 3.2 | 72 ± 15 | 122 ± 4.8 | 68.4 ± 19 | 118 ± 38 | 110 ± 9.4 | – | – | – | – | –
10 | O=P1(N(CCCl)CCCl)NCCCO1 (stereo not given) [Cyclophosphamide] | 81.2 ± 1.5 | 114 ± 0.31 | 107 ± 5.6 | 114 ± 8.3 | 89.7 ± 13 | 86.8 ± 5.3 | 93.6 ± 5.8 | 94.7 ± 8.6 | 88.4 ± 22 | 86.2 ± 26 | 102 ± 19 | 93.3 ± 7.1 | 83.2 ± 52 | 111 ± 50 | 81.3 ± 37 | 89 ± 21 | 96.1 ± 29 | 134 ± 22 | 74 ± 11 | 136 ± 10 | – | – | – | – | –
11 | O=C(Nc1ccc([N+](=O)[O-])cc1Cl)c1cc(Cl)ccc1O [Niclosamide] | 91.7 ± 20 | 109 ± 7 | 98.5 ± 3.8 | 55 ± 12 | 92.2 ± 13 | 92.62 ± 0.79 | 113 ± 7.2 | 46.5 ± 11 | 108 ± 7.6 | 83.6 ± 3.2 | 82.1 ± 19 | 59.8 ± 2.1 | 88.4 ± 14 | 104 ± 61 | 102 ± 80 | 50.2 ± 10 | 115 ± 21 | 119 ± 34 | 97.4 ± 20 | 37.7 ± 14 | – | – | – | – | –
12 | O=c1ncccn1[C@@H]1O[C@H](CO)[C@@H](O)[C@H]1O [Zebularine] | 96.6 ± 7.1 | 83.6 ± 14 | 88.3 ± 38 | 119 ± 24 | 112 ± 28 | 107 ± 6.2 | 107 ± 1.8 | 115 ± 7.4 | 98.7 ± 28 | 83.6 ± 30 | 83.8 ± 14 | 106 ± 9.4 | 84.7 ± 48 | 66 ± 3.3 | 108 ± 26 | 117 ± 5.5 | 108 ± 38 | 121 ± 22 | 93.6 ± 0.27 | 72.7 ± 13 | – | – | – | – | –
